One series relates to MES-SA cells. Nature of the series: Confocal fluorescence microscopy of intracellular localization. The format is cell-based, human. The following applies: 10 μM. As for the experimental part: 1.7. Laser Scanning Confocal Fluorescence Microscopy. MES-SA cells were plated on 22 mm^2 cover slips at approximately 50% confluence and treated as described above with Tat-ELP-GFLG-Dox (SEQ ID NO: 3). Cells were rinsed with PBS at the indicated times, fixed with paraformaldehyde (PFA, 2% v/v) and visualized using a TCS SP2 laser scanning confocal microscope with a 100× oil immersion objective (Leica, Wetzlar, Germany). PMT voltages were lowered for imaging of cells treated at 42° C. during image acquisition to maximize image resolution and intensity.
3.4. Cellular Distribution. To confirm that Tat-ELP-GFLG-Dox (SEQ ID NO: 3) was internalized and not merely attached to the cell exterior, the cellular distribution of the ELP-delivered drug was examined by confocal fluorescence microscopy. MES-SA cells were treated for 1 h at 37° C. and 42° C. with 10 μM Tat-ELP1-GFLG-Dox (SEQ ID NO: 3). The cells were rinsed and analyzed immediately after treatment and 24 h later using the intrinsic Dox fluorescence. […] Untreated cells had no signal under the imaging settings used, ruling out any contribution to the images from autofluorescence (FIG. 7B, right panel).

Series [1] relates to MES-SA uterine sarcoma cells. The format is cell-based, human. The following applies: for Inhibition of cell proliferation: 5 μM, counted after 72 h; for IC50: cells counted after 72 h, ± SEM. How it is done: MES-SA cells were treated for 1 h at 37 or 42° C. with 5 μM Tat-ELP-GFLG-DOX (SEQ ID NO: 3); ELP-GFLG-DOX (SEQ ID NO: 3), which lacks the Tat cell penetrating peptide; or Tat-ELP-GFLG (SEQ ID NO: 3), which is not labeled with DOX. After the 1 h treatment, cells were rinsed and fresh media was replaced for 72 h. Cells remaining after 72 h were collected by trypsinization and counted using a Coulter counter. […] Similarly, the control polypeptide which lacks the Tat sequence was not cytotoxic, likely because it cannot efficiently enter the cells.
1.8 Cytotoxicity Assay. Cells were plated and treated for 1 h at 37° C. and 42° C. as described above with Tat-ELP1-GFLG-Dox (SEQ ID NO: 3), Tat-ELP2-GFLG-Dox (SEQ ID NO: 3), or control polypeptides lacking the Tat sequence or unlabeled with Dox. Cells were rinsed and harvested 72 h after treatment by trypsinization, collected by centrifugation, and resuspended in isotonic buffer. Cell number was determined using a Coulter counter and expressed as a percentage of untreated cells.
1.10. Data Fitting and Statistical Analysis. The concentration dependence of the Tt was fit with a logarithmic equation using Microsoft Excel. Dose-response curves were fit using exponential or sigmoid equations as applicable using Microcal Origin in order to determine the 50% inhibitory concentration (IC50). […] The significance of the thermal targeting index was assessed by comparing the normothermia group with the hyperthermia group using a paired Student's t-test in Microsoft Excel. p values of less than 0.05 were considered statistically significant. Polypeptide uptake and caspase activation were analyzed for statistical differences using one-way ANOVA analyses with post-hoc Scheffe's tests for pair-wise comparisons of treatment groups. The statistical significance level was p<0.05.
3.5. Cytotoxicity of ELP-delivered Dox. The growth-inhibitory activity of Tat-ELP-GFLG-Dox (SEQ ID NO: 3) was evaluated in the MES-SA uterine sarcoma cell line. MES-SA cells were treated for 1 h at 37° C. or 42° C. with various concentrations of Tat-ELP-GFLG-Dox (SEQ ID NO: 3); ELP-GFLG-Dox (SEQ ID NO: 3), which lacks the Tat cell penetrating peptide, the Tat-ELP-GFLG (SEQ ID NO: 3) polypeptide without Dox; or free Dox. After the 1 h treatment, the cells were rinsed and fresh media was replaced for 72 h. Cells remaining after 72 h were rinsed, collected by trypsinization, and counted using a Coulter counter. […] The toxicity of the unlabeled Tat-ELP-GFLG (SEQ ID NO: 3) protein was negligible when treated below the Tt.

Like-named read-outs stand apart in the source and are kept apart here.

As usually defined, the IC50 is the concentration at which inhibition is half-maximal. With Tat-ELP1-GFLG-Dox, the “Intracellular localization of Dox” value in the series with MES-SA cells (24 h after 1 h exposure) is “remained in the cell cytoplasm”; in the series on MES-SA cells (after 1 h exposure), “plasma and nuclear membranes as well as in a punctate pattern in the cytoplasm”. Moreover, the Cytotoxicity in words result in series [1] was “cytotoxic at 37° C., but high concentrations were needed”. The “Enhancement of cytotoxicity (reduction of IC50) by hyperthermia” value in series [1] was “twenty-fold”. Also, the “Inhibition of cell proliferation” value in series [1] (1 h at 37° C.) is “little toxicity”; in series [1] (1 h at 42° C.) it was “complete inhibition of cell proliferation”. Besides, the IC50 in series [1] (1 h treatment at 37° C., read-out: IC50 (37° C.)) was found to be 21.9 ± 8.2 µM; in series [1] (1 h treatment at 42° C., read-out: IC50 (42° C.)), 1.1 ± 0.1 µM.
